# Experimental data taken from patent US6413607B1, “Cyanine dyes” (Kabushiki Kaisha Hayashibara Seibutsu Kagaku Kenkyujo, priority 1999, dated 2002).
# Where two headings read alike, the source gives them in different places.
# Tests used:
# Type in all cases: physicochemical
# [1] = Solubility of cyanine dye in TFP; settings: in TFP at 20° C.
# Description: For the cyanine dyes in Table 1, they were measured for solubility in TFP at 20° C.
# When coating over the substrates for optical recording media, the cyanine dyes are generally prepared into 0.1-10 w/w % solutions.
# [2] = Decomposition point by DTA and TGA; settings: for Decomposability at temperatures around decomposition point / Rapidity of decomposition among Chemical Formulae 1, 4 and 6 to 8: in words; for Decomposition point (° C.): temperature increase 10° C./min
# Description: An adequate amount of either of the cyanine dyes in Table 1 as a test specimen was placed in a vessel and subjected to conventional differential thermal analysis (hereinafter abbreviated as “DTA”) and thermogravimetric analysis (hereinafter abbreviated as “TGA”) using “MODEL TG/DTA 220”, a digital thermo analyzer commercialized by Seiko Instruments Inc., Tokyo, Japan, to determine the melting point, i.e., a temperature at which the cyanine dyes as test specimens begin to absorb heat on […], and to determine the decomposition point, i.e., a temperature at which the cyanine dyes as test specimens begin to lose weight on […]. In parallel, conventional related compounds represented by Chemical Formulae 33 and 34 were analyzed similarly as above. FIGS. 2 and 3 are respectively the results of the cyanine dye represented by Chemical Formula 4 of the present invention and conventional related compound represented by Chemical Formula 34. In DTA and TGA, the environmental temperature was set to an increasing temperature mode at a rate of 10° C./min.
# As evident from Table 1 and FIGS. 2 and 3, all the conventional related compounds had melting points and decomposition points which were different from each other, and very slowly decomposed at temperatures around their decomposition points. […] Most specifically, conventional known compounds had both melting points and decomposition points which were different from each other, i.e., the difference ranged from 17 to 108° C., while most of the cyanine dyes of the present invention had decomposition points which were undistinguishable from their melting points or had only the decomposition points.
# [3] = Light characteristics: visible absorption spectrum in methanol and as thin layer over glass; settings: for Maximum absorption (nm) CH3OH: dissolved in methanol; for Maximum absorption (nm) Thin Layer: formed into layer over glass; for Shift of absorption maximum compared with conventional related compounds: thin layer, in words
# Description: The cyanine dyes as listed in Table 1 of the present invention and known compounds represented by Chemical Formulae 33 and 34 as controls were measured for visible absorption spectrum when dissolved in methanol and formed into layers over glasses.
# [4] = Decomposition rate: differential calorimetric curve (DSC), half value width; settings: for Calorific value / Decomposition initiating point / Decomposition peak point / Half value width: DSC, 10° C./min; for Calorific value / Decomposition initiating point / Decomposition peak point: nitrogen atmosphere; for Half value width: width of decomposition peak at half calorific value, nitrogen
# Description: For the cyanine dyes represented by Chemical Formulae 4, 6 and 8 of the present invention, they were in a usual manner examined for differential calorimetric curve when heated under an increasing temperature rate of 10° C./min and nitrogen atmospheric conditions using “MODEL DSC220U”, a digital thermo analyzer commercialized by Seiko Instruments Inc., Tokyo, Japan. In parallel, conventional cyanine dye represented by Chemical Formula 33 was examined for differential calorimetric curve similarly as above. FIGS. 4 and 5 are respectively differential calorimetric curves for the cyanine dyes represented by Chemical Formulae 4 and 33.
# Based on the results of the differential calorimetric curves, the half calorific vallues at descomposition peaks for each cyanine dyes were determined, and the thermal difference between the two points, having the determined half calorific values at both ends of each descomposition peaks (hereinafter designated as “a half value width”), was determined.
# As evident from the results in Table 2 and FIGS. 4 and 5, the cyanine dyes of the present invention instantly and promptly decomposed in spite of their substantially the same calorific-values as compared with conventional one. […] Similarly as in conventional related compounds represented by Formulae 33 and 34, dyes with a relatively-slow decomposition rate are substantially difficult to form stable minute pits at a relatively-high density on a restricted recording surface of high-density optical recording media such as DVD-Rs, as mentioned above. Varying depending on glass transition temperature of substrate, when used as a light absorbent in optical recording media, dyes with a lower decomposition point can be generally used to write information by using a lower-power laser beam as a merit, however, as a demerit, when exposed to laser beam for a relatively-long period of time on reading, the dyes tend to accumulate heat and deform parts around pits and other parts free of pit on recording surfaces, resulting in large jitters and reading errors. The cyanine dyes of the present invention substantially absorb a visible light with a wavelength around 650 nm when formed into a thin layer, have decomposition points which are undistinguishable from their melting points or only have the decomposition points of relatively-high temperatures, and have an outstandingly-high decomposition rate at around the decomposition points. These characteristics mean that high-density optical recording media, having a relatively-small jitter, insubstantial reading error, and satisfactory stability of exposure to environmental light such as reading light and natural light, can be obtained by using the cyanine dyes of the present invention as light absorbents. The reason of why the half value width was employed as an index for the decomposability in this example was due to the fact that it can effectively evaluate the decomposition rate of test specimens.
Compound,"Rapidity of decomposition among Chemical Formulae 1, 4 and 6 to 8 [2]",Maximum absorption (nm) CH3OH [3],Maximum absorption (nm) Thin Layer [3],Solubility [1],Decomposition point (° C.) [2],Calorific value [4],Decomposition initiating point [4],Decomposition peak point [4],Half value width as level of that of conventional cyanine dye ([4]; relative to Chemical Formula 33),Half value width [4],"Solubility ([1]; organic solvent or mixture, read-out: Solubility)",Decomposability at temperatures around decomposition point [2],Shift of absorption maximum compared with conventional related compounds [3]
CN1C(=CC=CC2=[N+](C)c3ccc([N+](=O)[O-])cc3C2(C)C)C(C)(C)c2c1ccc1ccccc21 [Chemical Formula 1],decomposed most rapidly,573 nm,609 nm,–,–,–,–,–,–,–,36 mg/mL,instantly decomposed at once,shifted their absorption maxima to longer wavelengths by a large margin
CCCCN1C(=CC=CC2=[N+](C)c3ccc([N+](=O)[O-])cc3C2(C)C)C(C)(C)c2c1ccc1ccccc21.CCN(CC)c1ccc2c(c1)[O][Co-]1([O]c3ccc([N+](=O)[O-])cc3N=N2)[O]c2ccc([N+](=O)[O-])cc2N=Nc2ccc(N(CC)CC)cc2[O]1 [Chemical Formula 3],–,540 nm,557 nm,22 mg/mL,271.3 °C,–,–,–,–,–,–,–,–
CCN1C(=CC=CC2=[N+](CC)c3ccc([N+](=O)[O-])cc3C2(C)C)C(C)(C)c2c1ccc1ccccc21.[O-][Cl+3]([O-])([O-])[O-] [Chemical Formula 4],decomposed most rapidly,576 nm,609 nm,126 mg/mL,–,1826 mJ/mg,295.8 °C,298.6 °C,⅙,7.7 °C,–,instantly decomposed at once,shifted their absorption maxima to longer wavelengths by a large margin
CCCN1C(=CC=CC2=[N+](CCC)c3ccc([N+](=O)[O-])cc3C2(C)C)C(C)(C)c2c1ccc1ccccc21.[O-][Cl+3]([O-])([O-])[O-] [Chemical Formula 6],decomposed most rapidly,578 nm,609 nm,164 mg/mL,–,1827 mJ/mg,279.5 °C,285.5 °C,–,13.2 °C,–,–,shifted their absorption maxima to longer wavelengths by a large margin
CCCCN1C(=CC=CC2=[N+](CCC)c3ccc([N+](=O)[O-])cc3C2(C)C)C(C)(C)c2c1ccc1ccccc21.[O-][Cl+3]([O-])([O-])[O-] [Chemical Formula 7],decomposed most rapidly,577 nm,609 nm,210 mg/mL,261.2 °C,–,–,–,–,–,–,–,shifted their absorption maxima to longer wavelengths by a large margin
CCCCN1C(=CC=CC2=[N+](CCCC)c3ccc([N+](=O)[O-])cc3C2(C)C)C(C)(C)c2c1ccc1ccccc21.[O-][Cl+3]([O-])([O-])[O-] [Chemical Formula 8],–,577 nm,609 nm,245 mg/mL,262.4 °C,1663 mJ/mg,249.9 °C,273.5 °C,–,32.2 °C,–,–,shifted their absorption maxima to longer wavelengths by a large margin
CCN1C(=CC=CC2=[N+](CC)c3ccc([N+](=O)[O-])cc3C2(C)C)C(C)(C)c2ccc3ccccc3c21.[O-][Cl+3]([O-])([O-])[O-] [Chemical Formula 15],–,562 nm,617 nm,229 mg/mL,270.7 °C,–,–,–,–,–,–,–,shifted their absorption maxima to longer wavelengths by a large margin
"CCCCN1/C(=C/C=C/C2=[N+](CCCC)c3ccccc3C2(C)C)C(C)(C)c2c1ccc1ccccc21 [Chemical Formula 33, reference compound]",–,568 nm,600 nm,–,268.1 °C,1467 mJ/mg,255.4 °C,297.4 °C,–,49.9 °C,–,–,–
"CCCCN1/C(=C/C=C/C2=[N+](CCCC)c3ccc(C)cc3C2(C)C)C(C)(C)c2c1ccc1ccccc21 [Chemical Formula 34, reference compound]",–,574 nm,599 nm,–,267 °C,–,–,–,–,–,–,–,–

# Now from value to compound, other results behind:
"Rapidity of decomposition among Chemical Formulae 1, 4 and 6 to 8 [2]",Maximum absorption (nm) CH3OH [3],Maximum absorption (nm) Thin Layer [3],Solubility [1],Decomposition point (° C.) [2],Calorific value [4],Decomposition initiating point [4],Decomposition peak point [4],Half value width as level of that of conventional cyanine dye ([4]; relative to Chemical Formula 33),Half value width [4],Compound,"Solubility ([1]; organic solvent or mixture, read-out: Solubility)",Decomposability at temperatures around decomposition point [2],Shift of absorption maximum compared with conventional related compounds [3]
–,591 nm,591 nm,>200 mg/mL,273.5 °C,–,–,–,–,–,CCCCN1C(=CC=CC2=[N+](C)c3ccc(S(=O)(=O)N(CC)CC)cc3C2(C)C)C(C)(C)c2c1ccc1ccccc21.F[P-](F)(F)(F)(F)F [Chemical Formula 23],–,–,–
–,538 nm,556 nm,197 mg/mL,–,–,–,–,–,–,CCCCN1C(=CC=CC2=[N+](C)c3ccc(S(=O)(=O)N(CC)CC)cc3C2(C)C)C(C)(C)c2c1ccc1ccccc21.CCN(CC)c1ccc2c(c1)[O][Co-]1([O]c3ccc([N+](=O)[O-])cc3N=N2)[O]c2ccc([N+](=O)[O-])cc2N=Nc2ccc(N(CC)CC)cc2[O]1 [Chemical Formula 24],–,–,–
–,570 nm,594 nm,127 mg/mL,257.3 °C,–,–,–,–,–,CCCCN1C(=CC=CC2=[N+](C)c3ccc(S(=O)(=O)N(CC)CC)cc3C2(C)C)C(C)(C)c2c1ccc1ccccc21.O=[N+]([O-])c1ccc2c(c1)N=Nc1c(ccc3ccccc13)[O][Ni-]1([O]2)[O]c2ccc([N+](=O)[O-])cc2N=Nc2c(ccc3ccccc23)[O]1 [Chemical Formula 26],–,–,–
–,571 nm,592 nm,>200 mg/mL,–,–,–,–,–,–,CCN1C(=CC=CC2=[N+](CC)c3ccc(S(=O)(=O)N(CC)CC)cc3C2(C)C)C(C)(C)c2c1ccc1ccccc21.[O-][Cl+3]([O-])([O-])[O-] [Chemical Formula 27],–,–,–
